Results taken from ChEMBL document CHEMBL5678818, “Discovery of potent SOS1 inhibitors that block RAS activation via disruption of the RAS-SOS1 interaction” (Proc Natl Acad Sci U S A, 2019).

How the values were obtained:
[1] = target: Mitogen-activated protein kinase 1 (Homo sapiens) (UniProt P28482); test: Inhibition of ERK2 (unknown origin) assessed as residual activity at 1000 nM by KINOMEscan analysis relative to control
[2] = target: Tyrosine-protein kinase ABL1 (Homo sapiens) (UniProt P00519); test: Inhibition of phosphorylated ABL1 (unknown origin) assessed as residual activity at 1000 nM by KINOMEscan analysis relative to control
Tyrosine-protein kinase ABL1 (Homo sapiens), sequence (P00519 whole entry): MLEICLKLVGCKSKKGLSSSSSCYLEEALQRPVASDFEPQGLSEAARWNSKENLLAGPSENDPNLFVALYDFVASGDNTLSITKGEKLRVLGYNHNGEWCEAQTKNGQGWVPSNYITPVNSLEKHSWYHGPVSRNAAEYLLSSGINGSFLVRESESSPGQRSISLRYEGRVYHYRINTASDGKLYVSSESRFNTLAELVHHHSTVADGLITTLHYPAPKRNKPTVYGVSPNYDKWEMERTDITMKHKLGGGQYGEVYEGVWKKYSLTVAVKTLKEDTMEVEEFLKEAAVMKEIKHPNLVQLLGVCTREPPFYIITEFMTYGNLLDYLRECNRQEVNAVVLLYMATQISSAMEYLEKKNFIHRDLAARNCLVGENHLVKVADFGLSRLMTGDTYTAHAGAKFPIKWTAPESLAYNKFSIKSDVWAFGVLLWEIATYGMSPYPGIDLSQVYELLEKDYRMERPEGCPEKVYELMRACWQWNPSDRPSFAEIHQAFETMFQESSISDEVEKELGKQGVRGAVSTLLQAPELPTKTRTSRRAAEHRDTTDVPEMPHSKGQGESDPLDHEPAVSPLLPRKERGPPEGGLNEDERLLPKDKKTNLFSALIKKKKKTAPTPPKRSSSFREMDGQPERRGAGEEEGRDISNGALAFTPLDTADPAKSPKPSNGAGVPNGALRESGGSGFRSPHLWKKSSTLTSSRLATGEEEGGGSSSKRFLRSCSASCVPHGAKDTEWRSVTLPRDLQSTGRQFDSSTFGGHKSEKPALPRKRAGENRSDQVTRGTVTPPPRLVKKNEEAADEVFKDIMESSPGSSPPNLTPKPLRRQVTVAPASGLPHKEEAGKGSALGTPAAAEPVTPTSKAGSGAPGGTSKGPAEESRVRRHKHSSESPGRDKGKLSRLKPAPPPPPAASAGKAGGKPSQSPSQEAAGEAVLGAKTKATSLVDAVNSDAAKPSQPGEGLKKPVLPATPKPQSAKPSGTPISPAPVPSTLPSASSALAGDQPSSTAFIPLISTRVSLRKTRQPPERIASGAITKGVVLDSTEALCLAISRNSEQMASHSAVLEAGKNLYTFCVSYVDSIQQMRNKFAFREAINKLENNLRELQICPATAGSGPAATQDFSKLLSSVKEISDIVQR

[3] = target: Serine/threonine-protein kinase 33 (Homo sapiens) (UniProt Q9BYT3); test: Inhibition of STK33 (unknown origin) assessed as residual activity at 1000 nM by KINOMEscan analysis relative to control
Serine/threonine-protein kinase 33 (Homo sapiens), sequence (Q9BYT3 whole entry, looked up): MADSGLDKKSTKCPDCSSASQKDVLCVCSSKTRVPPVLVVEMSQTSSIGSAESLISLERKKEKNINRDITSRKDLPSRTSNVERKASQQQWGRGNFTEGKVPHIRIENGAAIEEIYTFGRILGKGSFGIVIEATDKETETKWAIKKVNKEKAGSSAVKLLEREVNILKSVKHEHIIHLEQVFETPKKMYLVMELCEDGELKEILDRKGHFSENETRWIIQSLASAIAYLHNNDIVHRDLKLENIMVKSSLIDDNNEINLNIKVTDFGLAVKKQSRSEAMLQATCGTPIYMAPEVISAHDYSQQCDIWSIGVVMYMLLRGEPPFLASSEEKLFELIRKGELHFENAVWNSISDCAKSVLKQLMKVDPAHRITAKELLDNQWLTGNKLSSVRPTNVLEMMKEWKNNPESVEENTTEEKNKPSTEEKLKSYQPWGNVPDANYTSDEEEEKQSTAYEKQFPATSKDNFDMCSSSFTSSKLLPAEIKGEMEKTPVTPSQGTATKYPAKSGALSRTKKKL

[4] = target: Platelet-derived growth factor receptor alpha (Homo sapiens) (UniProt P16234); test: Inhibition of PDGFRA (unknown origin) assessed as residual activity at 1000 nM by KINOMEscan analysis relative to control
[5] = target: T1, Serine/threonine-protein kinase ULK1 (Homo sapiens) (UniProt O75385); test: Inhibition of ULK1 (unknown origin) assessed as residual activity at 1000 nM by KINOMEscan analysis relative to control
T1 sequence (whole entry): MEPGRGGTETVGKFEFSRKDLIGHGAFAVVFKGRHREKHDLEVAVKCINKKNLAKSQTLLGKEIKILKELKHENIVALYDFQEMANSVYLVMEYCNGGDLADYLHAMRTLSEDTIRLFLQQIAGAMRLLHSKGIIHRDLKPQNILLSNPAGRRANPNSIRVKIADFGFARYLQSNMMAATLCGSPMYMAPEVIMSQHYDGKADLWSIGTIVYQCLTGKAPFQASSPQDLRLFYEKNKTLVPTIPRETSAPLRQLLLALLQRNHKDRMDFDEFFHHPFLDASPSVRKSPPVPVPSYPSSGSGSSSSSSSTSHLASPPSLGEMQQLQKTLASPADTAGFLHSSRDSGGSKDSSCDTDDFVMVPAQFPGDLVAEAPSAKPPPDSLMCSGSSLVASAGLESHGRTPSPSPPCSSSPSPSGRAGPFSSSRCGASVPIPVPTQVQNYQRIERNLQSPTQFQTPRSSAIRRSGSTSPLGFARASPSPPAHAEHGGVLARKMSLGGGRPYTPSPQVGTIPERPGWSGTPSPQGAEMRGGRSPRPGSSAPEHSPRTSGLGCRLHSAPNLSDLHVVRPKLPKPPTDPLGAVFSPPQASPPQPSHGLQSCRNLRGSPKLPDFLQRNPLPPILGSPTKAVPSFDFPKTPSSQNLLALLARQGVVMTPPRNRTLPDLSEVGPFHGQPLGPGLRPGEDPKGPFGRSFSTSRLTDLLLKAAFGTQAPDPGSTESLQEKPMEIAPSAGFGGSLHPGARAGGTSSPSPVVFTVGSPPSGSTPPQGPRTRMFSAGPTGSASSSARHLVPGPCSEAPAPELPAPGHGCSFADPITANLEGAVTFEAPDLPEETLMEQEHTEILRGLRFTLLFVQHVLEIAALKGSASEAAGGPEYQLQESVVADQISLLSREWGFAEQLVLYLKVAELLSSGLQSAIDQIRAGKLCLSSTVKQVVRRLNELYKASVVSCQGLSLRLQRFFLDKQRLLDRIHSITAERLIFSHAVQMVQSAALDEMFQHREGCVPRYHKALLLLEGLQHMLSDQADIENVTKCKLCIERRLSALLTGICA

Homo sapiens = species on record: Homo sapiens; test: Inhibition of JNK2 (unknown origin) assessed as residual activity at 1000 nM by KINOMEscan analysis relative to control
[6] = system: Epidermal growth factor receptor (Homo sapiens), P00533 [UNDEFINED MUTATION]; test: Inhibition of EGFR E746-A750del mutant (unknown origin) assessed as residual activity at 1000 nM by KINOMEscan analysis relative to control
Epidermal growth factor receptor (Homo sapiens), P00533 [UNDEFINED MUTATION], sequence (P00533 whole entry, looked up, stated change not applied): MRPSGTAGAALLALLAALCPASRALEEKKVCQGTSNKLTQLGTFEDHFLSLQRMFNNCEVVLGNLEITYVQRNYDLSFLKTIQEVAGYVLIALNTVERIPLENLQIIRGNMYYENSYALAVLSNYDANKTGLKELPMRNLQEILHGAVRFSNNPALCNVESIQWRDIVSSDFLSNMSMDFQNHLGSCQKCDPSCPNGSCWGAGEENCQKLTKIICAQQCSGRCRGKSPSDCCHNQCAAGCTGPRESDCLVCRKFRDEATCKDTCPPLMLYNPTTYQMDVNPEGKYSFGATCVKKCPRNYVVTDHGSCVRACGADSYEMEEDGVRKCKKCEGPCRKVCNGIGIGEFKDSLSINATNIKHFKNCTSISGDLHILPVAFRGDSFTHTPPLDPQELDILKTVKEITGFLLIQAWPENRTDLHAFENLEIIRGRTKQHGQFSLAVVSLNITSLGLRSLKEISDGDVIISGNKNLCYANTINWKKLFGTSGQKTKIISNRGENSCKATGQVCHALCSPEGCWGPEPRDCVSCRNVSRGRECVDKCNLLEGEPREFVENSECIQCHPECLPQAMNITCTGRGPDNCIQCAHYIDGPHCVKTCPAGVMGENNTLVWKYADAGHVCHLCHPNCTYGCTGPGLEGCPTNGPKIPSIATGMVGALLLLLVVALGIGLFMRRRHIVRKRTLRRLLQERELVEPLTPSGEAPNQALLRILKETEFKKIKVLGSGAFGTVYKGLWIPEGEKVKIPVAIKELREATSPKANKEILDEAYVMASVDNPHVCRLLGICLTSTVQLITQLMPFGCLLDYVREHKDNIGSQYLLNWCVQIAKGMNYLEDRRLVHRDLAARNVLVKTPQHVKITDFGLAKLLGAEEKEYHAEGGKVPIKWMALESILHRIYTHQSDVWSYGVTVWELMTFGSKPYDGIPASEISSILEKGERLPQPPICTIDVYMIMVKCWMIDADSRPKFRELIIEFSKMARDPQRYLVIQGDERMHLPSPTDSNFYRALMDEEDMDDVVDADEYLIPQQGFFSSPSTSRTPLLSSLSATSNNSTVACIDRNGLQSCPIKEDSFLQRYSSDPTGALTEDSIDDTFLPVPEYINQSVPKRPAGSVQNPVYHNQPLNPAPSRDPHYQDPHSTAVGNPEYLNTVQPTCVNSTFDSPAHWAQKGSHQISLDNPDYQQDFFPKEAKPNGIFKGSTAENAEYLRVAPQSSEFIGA

[7] = target: T2, Interleukin-1 receptor-associated kinase 3 (Homo sapiens) (UniProt Q9Y616); test: Inhibition of IRAK3 (unknown origin) assessed as residual activity at 1000 nM by KINOMEscan analysis relative to control
T2 sequence (whole entry): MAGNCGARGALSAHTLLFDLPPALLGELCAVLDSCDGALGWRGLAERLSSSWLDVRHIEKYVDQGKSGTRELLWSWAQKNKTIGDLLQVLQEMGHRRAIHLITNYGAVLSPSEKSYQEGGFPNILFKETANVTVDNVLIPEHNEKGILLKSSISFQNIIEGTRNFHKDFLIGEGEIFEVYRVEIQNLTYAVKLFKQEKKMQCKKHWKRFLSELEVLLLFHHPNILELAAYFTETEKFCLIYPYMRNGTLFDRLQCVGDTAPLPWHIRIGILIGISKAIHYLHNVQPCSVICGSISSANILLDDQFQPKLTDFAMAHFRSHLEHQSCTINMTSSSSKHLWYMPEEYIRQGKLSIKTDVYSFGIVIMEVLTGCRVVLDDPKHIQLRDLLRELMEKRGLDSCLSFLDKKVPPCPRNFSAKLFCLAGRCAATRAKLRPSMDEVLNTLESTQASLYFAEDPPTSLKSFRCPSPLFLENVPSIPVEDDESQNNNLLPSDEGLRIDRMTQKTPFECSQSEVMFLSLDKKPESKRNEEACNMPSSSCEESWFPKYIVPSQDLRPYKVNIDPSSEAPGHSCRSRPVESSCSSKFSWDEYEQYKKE

[8] = target: Ribosomal protein S6 kinase alpha-1 (Homo sapiens) (UniProt Q15418); test: Inhibition of C-terminal RSK1 kinetic domain 2 (unknown origin) assessed as residual activity at 1000 nM by KINOMEscan analysis relative to control
[9] = target: Receptor tyrosine-protein kinase erbB-4 (Homo sapiens) (UniProt Q15303); test: Inhibition of ERBB4 (unknown origin) assessed as residual activity at 1000 nM by KINOMEscan analysis relative to control
Receptor tyrosine-protein kinase erbB-4 (Homo sapiens), sequence (Q15303 whole entry): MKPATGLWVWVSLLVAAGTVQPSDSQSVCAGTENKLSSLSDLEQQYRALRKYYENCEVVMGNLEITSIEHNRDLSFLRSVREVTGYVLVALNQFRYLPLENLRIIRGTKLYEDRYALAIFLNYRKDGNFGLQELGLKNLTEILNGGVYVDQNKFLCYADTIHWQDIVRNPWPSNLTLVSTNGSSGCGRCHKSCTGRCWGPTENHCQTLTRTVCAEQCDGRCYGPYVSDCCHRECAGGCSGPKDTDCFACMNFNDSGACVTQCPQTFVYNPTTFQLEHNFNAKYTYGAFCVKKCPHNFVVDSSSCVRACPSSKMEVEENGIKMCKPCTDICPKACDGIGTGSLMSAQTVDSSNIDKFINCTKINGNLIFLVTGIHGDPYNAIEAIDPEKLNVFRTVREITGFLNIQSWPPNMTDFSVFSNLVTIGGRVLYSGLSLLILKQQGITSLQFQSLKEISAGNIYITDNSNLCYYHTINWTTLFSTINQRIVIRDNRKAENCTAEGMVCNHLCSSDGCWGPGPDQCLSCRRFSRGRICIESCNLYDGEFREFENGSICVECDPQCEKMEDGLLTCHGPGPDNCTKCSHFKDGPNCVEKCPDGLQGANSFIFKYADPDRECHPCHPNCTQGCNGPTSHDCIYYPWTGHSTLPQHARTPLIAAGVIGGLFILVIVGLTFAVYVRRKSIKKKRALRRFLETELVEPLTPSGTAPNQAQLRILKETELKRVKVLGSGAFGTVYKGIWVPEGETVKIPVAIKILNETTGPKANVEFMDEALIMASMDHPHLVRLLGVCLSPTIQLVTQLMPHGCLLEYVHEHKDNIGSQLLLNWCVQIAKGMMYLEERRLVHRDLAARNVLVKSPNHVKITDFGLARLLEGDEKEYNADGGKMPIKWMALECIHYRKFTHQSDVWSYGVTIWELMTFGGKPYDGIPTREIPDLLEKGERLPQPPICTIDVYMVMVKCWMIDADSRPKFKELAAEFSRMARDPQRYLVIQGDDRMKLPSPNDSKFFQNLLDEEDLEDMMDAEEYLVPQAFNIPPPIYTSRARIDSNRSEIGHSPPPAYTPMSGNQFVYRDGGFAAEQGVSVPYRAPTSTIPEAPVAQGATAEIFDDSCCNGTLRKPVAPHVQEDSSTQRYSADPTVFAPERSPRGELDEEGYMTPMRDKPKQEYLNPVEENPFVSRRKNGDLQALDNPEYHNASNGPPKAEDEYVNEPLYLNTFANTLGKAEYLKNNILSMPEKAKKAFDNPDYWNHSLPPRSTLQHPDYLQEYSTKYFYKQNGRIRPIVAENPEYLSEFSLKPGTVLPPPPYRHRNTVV

[10] = target: Serine/threonine-protein kinase 32A (Homo sapiens) (UniProt Q8WU08); test: Inhibition of YANK1 (unknown origin) assessed as residual activity at 1000 nM by KINOMEscan analysis relative to control
Serine/threonine-protein kinase 32A (Homo sapiens), sequence (Q8WU08 whole entry): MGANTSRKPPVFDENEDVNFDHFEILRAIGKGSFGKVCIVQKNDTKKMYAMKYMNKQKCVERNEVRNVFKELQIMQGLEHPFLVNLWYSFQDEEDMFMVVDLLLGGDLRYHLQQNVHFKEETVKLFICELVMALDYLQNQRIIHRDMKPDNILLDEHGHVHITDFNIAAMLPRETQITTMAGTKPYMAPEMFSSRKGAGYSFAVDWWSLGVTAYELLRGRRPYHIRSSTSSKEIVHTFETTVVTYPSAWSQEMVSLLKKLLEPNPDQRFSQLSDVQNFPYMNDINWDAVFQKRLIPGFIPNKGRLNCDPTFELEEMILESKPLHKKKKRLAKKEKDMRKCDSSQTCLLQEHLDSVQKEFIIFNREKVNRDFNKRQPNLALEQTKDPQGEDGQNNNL

Mitogen-activated protein kinase 1 (Homo sapiens), sequence (P28482 whole entry): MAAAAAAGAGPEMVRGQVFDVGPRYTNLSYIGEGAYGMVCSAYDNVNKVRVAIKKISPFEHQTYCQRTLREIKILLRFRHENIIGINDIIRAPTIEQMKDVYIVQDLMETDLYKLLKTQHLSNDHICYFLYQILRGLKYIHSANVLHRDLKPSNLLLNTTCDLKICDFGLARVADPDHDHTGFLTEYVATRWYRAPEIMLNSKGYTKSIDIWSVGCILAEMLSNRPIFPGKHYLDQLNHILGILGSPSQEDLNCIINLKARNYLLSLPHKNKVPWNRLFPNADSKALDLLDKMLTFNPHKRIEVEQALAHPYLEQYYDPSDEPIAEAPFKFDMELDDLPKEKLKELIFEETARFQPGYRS

For `COc1cc2nc(C)nc(N[C@H](C)c3cccc(-c4cn[nH]c4)c3)c2cc1OC`, the Activity [1] was 90%, the Activity [2] was 81% and the Activity [3] was 100%. It also gave an Activity [4] of 100%, an Activity [5] of 97% and an Activity (Homo sapiens) of 71%. The Activity [6] was 100%, the Activity [7] was 100% and the Activity [8] was 99%. It also gave an Activity [9] of 89% and an Activity [10] of 97%.

In the case of `COc1cc2ncnc(N[C@H](C)c3cccc4ccccc34)c2cc1OC`, the Activity [1] is reported as 96%, the Activity [2] is reported as 97% and the Activity [3] is reported as 68%. It also gave an Activity [4] of 100%, an Activity [5] of 87% and an Activity (Homo sapiens) of 93%. For the same compound, the Activity [6] was 5.9%, the Activity [7] was 100% and the Activity [8] was 100%. The Activity [9] was 46% and the Activity [10] was 86%.
